Source: paper PMC6856977 (Molecular Pain, 2018)

Columns and labels:
[1] = biological target: T1, rTRPV1 (Rattus norvegicus, UniProt O35433); assay: whole-cell patch clamp, block of capsaicin-evoked current; assay type: cell-based; settings: channel block; capsaicin 100 nM; HEK293t, -60 mV, room temperature, pH 7.4
[2] = biological target: hTRPA1 (Homo sapiens, UniProt O75762, C621S/C641S/C665S); assay: whole-cell patch clamp, evoked inward current; assay type: cell-based
[3] = biological target: hTRPA1 (Homo sapiens, UniProt O75762); assay: whole-cell patch clamp, evoked inward current; assay type: cell-based
hTRPA1 (Homo sapiens, UniProt O75762), sequence (O75762 whole entry): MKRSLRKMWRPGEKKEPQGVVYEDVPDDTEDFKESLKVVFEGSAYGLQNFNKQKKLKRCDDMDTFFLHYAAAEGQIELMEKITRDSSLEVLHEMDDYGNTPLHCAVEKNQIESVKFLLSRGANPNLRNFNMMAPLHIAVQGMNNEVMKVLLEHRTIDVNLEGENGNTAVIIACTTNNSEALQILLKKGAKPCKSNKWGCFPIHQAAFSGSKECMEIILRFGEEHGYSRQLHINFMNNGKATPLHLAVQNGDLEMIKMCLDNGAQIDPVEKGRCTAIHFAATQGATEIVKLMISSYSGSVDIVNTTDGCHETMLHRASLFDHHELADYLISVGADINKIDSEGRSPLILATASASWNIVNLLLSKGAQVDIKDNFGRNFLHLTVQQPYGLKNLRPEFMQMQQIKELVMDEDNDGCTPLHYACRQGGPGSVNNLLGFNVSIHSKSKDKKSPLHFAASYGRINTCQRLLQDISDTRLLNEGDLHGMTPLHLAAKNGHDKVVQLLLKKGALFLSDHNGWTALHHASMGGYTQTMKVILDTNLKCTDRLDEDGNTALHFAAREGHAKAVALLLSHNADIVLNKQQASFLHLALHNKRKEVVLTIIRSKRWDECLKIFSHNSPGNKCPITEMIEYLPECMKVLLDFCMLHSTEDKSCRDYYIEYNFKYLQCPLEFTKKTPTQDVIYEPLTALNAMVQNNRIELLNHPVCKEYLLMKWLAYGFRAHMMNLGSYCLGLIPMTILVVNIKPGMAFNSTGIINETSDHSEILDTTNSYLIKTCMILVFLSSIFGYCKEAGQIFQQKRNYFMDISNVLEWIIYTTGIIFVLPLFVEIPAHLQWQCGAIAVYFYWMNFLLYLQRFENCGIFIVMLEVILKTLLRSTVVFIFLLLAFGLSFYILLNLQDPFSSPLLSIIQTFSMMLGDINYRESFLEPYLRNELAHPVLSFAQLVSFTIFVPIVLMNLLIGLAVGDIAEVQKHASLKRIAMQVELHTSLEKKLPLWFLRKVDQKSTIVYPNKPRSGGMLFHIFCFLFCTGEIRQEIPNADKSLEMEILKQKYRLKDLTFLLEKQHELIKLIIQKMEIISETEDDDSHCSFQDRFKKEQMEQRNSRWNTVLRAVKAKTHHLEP

[4] = biological target: mTRPA1 (Mus musculus, UniProt Q8BLA8); assay: whole-cell patch clamp, evoked inward current
mTRPA1, sequence (Q8BLA8 whole entry): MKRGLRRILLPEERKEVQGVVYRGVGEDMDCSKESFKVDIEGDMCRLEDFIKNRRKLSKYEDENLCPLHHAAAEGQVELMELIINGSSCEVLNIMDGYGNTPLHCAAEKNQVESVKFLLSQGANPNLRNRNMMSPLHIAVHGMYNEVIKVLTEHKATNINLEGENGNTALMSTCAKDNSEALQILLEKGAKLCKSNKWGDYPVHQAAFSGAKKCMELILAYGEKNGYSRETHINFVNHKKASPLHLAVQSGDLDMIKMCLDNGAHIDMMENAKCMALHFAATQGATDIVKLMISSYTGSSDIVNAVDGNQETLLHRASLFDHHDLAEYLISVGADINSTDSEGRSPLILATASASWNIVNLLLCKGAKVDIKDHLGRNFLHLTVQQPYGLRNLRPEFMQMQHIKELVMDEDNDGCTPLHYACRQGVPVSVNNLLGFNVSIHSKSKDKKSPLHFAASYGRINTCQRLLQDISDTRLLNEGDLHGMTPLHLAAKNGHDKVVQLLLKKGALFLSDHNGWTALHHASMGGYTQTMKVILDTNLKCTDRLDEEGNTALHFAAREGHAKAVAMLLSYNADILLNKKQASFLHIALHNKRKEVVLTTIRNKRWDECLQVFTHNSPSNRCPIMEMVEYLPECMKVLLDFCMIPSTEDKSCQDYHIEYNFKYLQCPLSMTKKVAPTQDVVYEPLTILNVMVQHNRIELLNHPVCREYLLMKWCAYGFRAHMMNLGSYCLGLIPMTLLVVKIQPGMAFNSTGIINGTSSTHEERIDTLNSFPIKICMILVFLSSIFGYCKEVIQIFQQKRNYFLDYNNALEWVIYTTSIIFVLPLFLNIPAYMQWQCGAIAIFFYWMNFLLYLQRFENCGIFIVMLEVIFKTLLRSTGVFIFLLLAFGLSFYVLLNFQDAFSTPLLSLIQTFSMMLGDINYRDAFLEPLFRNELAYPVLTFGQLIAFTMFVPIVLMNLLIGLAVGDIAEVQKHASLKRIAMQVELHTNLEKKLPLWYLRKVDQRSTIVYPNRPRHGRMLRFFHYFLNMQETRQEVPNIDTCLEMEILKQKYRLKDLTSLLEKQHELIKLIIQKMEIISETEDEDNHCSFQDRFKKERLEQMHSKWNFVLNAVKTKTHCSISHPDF

[5] = biological target: T1, rTRPV1; assay: whole-cell patch clamp, evoked inward current; assay type: cell-based; settings: agonist; 10% PG (1366 mM); HEK293t, -60 mV, room temperature, pH 7.4

T1 sequence (O35433 whole entry): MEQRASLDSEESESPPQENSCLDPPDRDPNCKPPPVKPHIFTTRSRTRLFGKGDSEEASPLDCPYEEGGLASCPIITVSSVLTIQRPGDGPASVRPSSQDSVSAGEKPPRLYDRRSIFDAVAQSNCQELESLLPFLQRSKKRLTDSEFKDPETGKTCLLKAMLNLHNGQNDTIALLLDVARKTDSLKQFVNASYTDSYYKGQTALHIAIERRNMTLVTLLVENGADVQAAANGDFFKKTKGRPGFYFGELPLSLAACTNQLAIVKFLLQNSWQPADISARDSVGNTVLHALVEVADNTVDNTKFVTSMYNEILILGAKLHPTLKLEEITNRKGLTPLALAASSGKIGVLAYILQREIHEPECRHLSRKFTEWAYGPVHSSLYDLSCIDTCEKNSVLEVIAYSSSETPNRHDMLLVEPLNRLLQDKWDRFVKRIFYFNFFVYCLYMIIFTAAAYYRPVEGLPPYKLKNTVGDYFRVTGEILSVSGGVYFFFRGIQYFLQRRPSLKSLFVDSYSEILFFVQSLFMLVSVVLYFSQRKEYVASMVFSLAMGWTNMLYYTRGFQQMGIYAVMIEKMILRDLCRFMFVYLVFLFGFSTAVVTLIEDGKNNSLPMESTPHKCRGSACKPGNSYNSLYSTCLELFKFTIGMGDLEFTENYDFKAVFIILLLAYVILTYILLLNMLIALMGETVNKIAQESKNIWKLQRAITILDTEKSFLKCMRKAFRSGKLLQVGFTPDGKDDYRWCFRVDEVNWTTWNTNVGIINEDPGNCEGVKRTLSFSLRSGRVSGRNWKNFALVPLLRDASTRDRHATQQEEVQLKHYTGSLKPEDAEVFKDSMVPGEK
hTRPA1 (Homo sapiens, UniProt O75762, C621S/C641S/C665S), sequence (O75762 whole entry C621S/C641S/C665S): as the sequence (O75762 whole entry) above, with C621S, C641S, C665S counted along it

Compound	% current reduction at 100 μM [1]	EC50 [2] [µM]	EC50 [3] [µM]	EC50 [4] [µM]	current density at 10% PG [5] [pA/pF]
CCOC(=O)c1cncn1[C@H](C)c1ccccc1 [etomidate]	32 (95% CI: 20.2–43.8)	~1390	73	375	–
CC(O)CO (centres unmarked) [propylene glycol]	–	–	–	–	215 ± 26
